Test results taken from patent US20250214942A1, “INHIBITORS OF RECEPTOR INTERACTING PROTEIN KINASE I FOR THE TREATMENT OF DISEASE” (Board of Regents, The University of Texas System, priority 2019, published 2025).

These compounds were tested against RIPK1 (Homo sapiens (Human), UniProt Q13546) (assay: ADP-Glo kinase assay (RIPK1 activity, conversion of ATP to ADP)). Details: 5 nM RIPK1, 50 μM ATP, 6 h reaction; footnote symbol (a); read-out: RIPK1 Enzyme Avg IC50.
RIPK1, sequence (Q13546 1-327): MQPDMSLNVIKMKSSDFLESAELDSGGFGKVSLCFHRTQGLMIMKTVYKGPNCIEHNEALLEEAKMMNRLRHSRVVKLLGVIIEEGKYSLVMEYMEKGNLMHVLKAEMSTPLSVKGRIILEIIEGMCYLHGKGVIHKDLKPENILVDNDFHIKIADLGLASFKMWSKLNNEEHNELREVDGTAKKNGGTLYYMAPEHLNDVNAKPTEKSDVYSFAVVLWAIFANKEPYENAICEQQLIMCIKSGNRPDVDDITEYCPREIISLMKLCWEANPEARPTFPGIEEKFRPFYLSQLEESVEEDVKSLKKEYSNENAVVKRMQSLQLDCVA
Format: biochemical
Description: In order to measure RIPK1 activity the ADP-Glo kinase assay (Promega, Catalog #V7002) was used to measure the conversion of ATP to ADP. This enzymatic assay was performed in a 384-well white, Optiplate (Perkin Elmer, Catalog #6007299) with assay buffer consisting of 50 mM HEPES pH 7.5 (Gibco, Catalog #15630-080), 50 mM NaCl (Teknova, Catalog #S0252), 30 mM MgCl2 (Ambion, Catalog #AM9530G), 1 mM DTT (Santa Cruz Biotechnology, Catalog #sc-29089), 0.05% BSA (Sigma, Catalog #A3059-50G) and 0.02% CHAPS (Sigma, Catalog #C5070-5G). Stock solutions of the test compounds were prepared in 100% DMSO (Sigma, Catalog #D2650) and serially diluted 1:3 using 100% DMSO. Compounds were additionally diluted 1:40 in assay buffer, and 2 μL/well were transferred to the assay plate. 4 μL/well (final concentration of 5 nM) of RIPK1 protein (SignalChem, Catalog #R07-1IG-05) diluted in assay buffer and added to the assay plate followed by a 10 minute preincutation at rt. 4 μL/well of ATP (Promega, Catalog #V7002) (final concentration of 50 μM) diluted in assay buffer were then added to the assay plate followed by a 6 h reaction time. Final concentrations of RIPK1 and ATP refer to a 10 μL volume. Luminescence was measured using a BioTek Synergy™ NEO plate reader. IC50 values were calculated using a four-parameter logistic curve fit using Genedata Screener software.
In the case of `COC(=O)C12CC(C(=O)N3CC[C@@H](Oc4cc(F)ccc4F)C3)(C1)C2` [Example 37, Methyl (R)-3-(3-(2,5-difluorophenoxy)pyrrolidine-1-carbonyl)-bicyclo[1.1.1]pentane-1-carboxylate], the IC50 is reported as greater than 50000 nM. `O=C(NCc1cc(F)cc(F)c1)C12CC(CO)(C1)C2` [Example 91, N-(3,5-difluorobenzyl)-3-(hydroxymethyl)bicyclo-[1.1.1]pentane-1-carboxamide] gave an IC50 greater than 50000 nM. Compound `C[C@H](NC(=O)C12CC(CO)(C1)C2)c1cc(F)cc(F)c1` [Example 90, (S)-N-(1-(3,5-difluoro-phenyl)ethyl)-3-(hydroxymethyl)-bicyclo[1.1.1]pentane-1-carboxamide] has an IC50 greater than 50000 nM. Compound `Cc1cccc(C2CCCN2C(=O)C23CC(Nc4nccc(C#N)n4)(C2)C3)c1` (stereo not drawn) [Example 105, 2-((3-(2-(m-tolyl)pyrrolidine-1-carbonyl)bicyclo[1.1.1]-pentan-1-yl)amino)-pyrimidine-4-carbonitrile] has an IC50 greater than 50000 nM. `COC(=O)C12CC(C(=O)NCc3cc(F)cc(F)c3)(C1)C2` [Example 121, methyl 3-((3,5-difluoro-benzyl)carbamoyl)-bicyclo[1.1.1]pentane-1-carboxylate] gave an IC50 greater than 50000 nM. With `Cc1cccc(C2CCCN2C(=O)C23CC(NC(=O)c4ccccc4)(C2)C3)c1` (stereo not drawn) [Example 117, N-(3-(2-(m-tolyl)pyrrolidine-1-carbonyl)bicyclo[1.1.1]-pentan-1-yl)benzamide] the IC50 was greater than 50000 nM. Work on `O=C(N1CC[C@@H](Oc2cc(F)ccc2F)C1)C12CC(CO)(C1)C2` [Example 38, (R)-(3-(2,5-Difluorophenoxy)pyrrolidin-1-yl)(3-(hydroxymethyl)-bicyclo[1.1.1]pentan-1-yl)methanone] yielded an IC50 greater than 50000 nM. `N#Cc1cc(OCC23CC(C(=O)N4CC[C@@H](Oc5cc(F)ccc5F)C4)(C2)C3)ncn1` [Example 39, (R)-6-((3-(3-(2,5-difluorophenoxy)pyrrolidine-1-carbonyl)-bicyclo[1.1.1]pentan-1-yl)methoxy)pyrimidine-4-carbonitrile] was tested, and the IC50 was greater than 50000 nM. For `COC(=O)C12CC(C(=O)N[C@@H](C)c3cc(F)cc(F)c3)(C1)C2` [Example 115, methyl (S)-3-((1-(3,5-difluorophenyl)ethyl)-carbamoyl)bicyclo[1.1.1]-pentane-1-carboxylate], the IC50 was greater than 50000 nM.

Same assay, conditions: 5 nM RIPK1, 50 μM ATP, 6 h reaction; read-out: RIPK1 Enzyme Avg IC50
Compound `O=C(N1CC(F)CC1c1cccc(F)c1)C12CC(COc3ncc(F)cn3)(C1)C2` (stereo not drawn) [Example 97, (4-fluoro-2-(3-fluorophenyl)-pyrrolidin-1-yl)(3-(((5-fluoropyrimidin-2-yl)oxy)-methyl)bicyclo[1.1.1]pentan-1-yl)methanone] has an IC50 of 219 nM. With `COC(=O)C12CC(C(=O)N3N=CCC3c3cc(F)cc(F)c3)(C1)C2` (stereo not drawn) [Example 1, Methyl 3-(5-(3,5-difluorophenyl)-4,5-dihydro-1H-pyrazole-1-carbonyl)bicyclo[1.1.1]pentane-1-carboxylate] the IC50 was 40 nM. For `O=C(Nc1cc(Cl)ncn1)C12CC(C(=O)N3N=CCC3c3cc(F)cc(F)c3)(C1)C2` (stereo not drawn) [Example 76, N-(6-chloropyrimidin-4-yl)-3-(5-(3,5-difluorophenyl)-4,5-dihydro-1H-pyrazole-1-carbonyl)bicyclo[1.1.1]-pentane-1-carboxamide], the IC50 was 5390 nM. Work on `O=C(N1N=CCC1c1cc(F)cc(F)c1)C12CC(CN3CCOCC3)(C1)C2` (stereo not drawn) [Example 13, (5-(3,5-Difluorophenyl)-4,5-dihydro-1H-pyrazol-1-yl)(3-(morpholinomethyl)bicyclo[1.1.1]pentan-1-yl)methanone] yielded an IC50 of 1510 nM. For `N#Cc1cccc(NC(=O)C23CC(C(=O)N4N=CCC4c4cc(F)cc(F)c4)(C2)C3)c1` (stereo not drawn) [Example 77, N-(3-cyanophenyl)-3-(5-(3,5-difluorophenyl)-4,5-dihydro-1H-pyrazole-1-carbonyl)-bicyclo[1.1.1]pentane-1-carboxamide], the IC50 was 7110 nM. `COCc1cn(CC23CC(C(=O)N4N=CCC4c4cc(F)cc(F)c4)(C2)C3)nn1` (stereo not drawn) [Example 149, (5-(3,5-difluorophenyl)-4,5-dihydro-1H-pyrazol-1-yl)(3-((4-(methoxymethyl)-1H-1,2,3-triazol-1-yl)methyl)-bicyclo[1.1.1]pentan-1-yl)methanone] showed an IC50 of 3930 nM. Compound `COC(=O)C12CC(C(=O)N3CC(F)CC3c3cccc(F)c3)(C1)C2` (stereo not drawn) [Example 34, Methyl 3-(4-fluoro-2-(3-fluorophenyl)pyrrolidine-1-carbonyl)-bicyclo[1.1.1]pentane-1-carboxylate] has an IC50 of 1070 nM. `O=C(N1N=CCC1c1cc(F)cc(F)c1)C12CC(CN3C(=O)C(F)(F)c4ccccc43)(C1)C2` (stereo not drawn) [Example 32, 1-((3-(5-(3,5-Difluorophenyl)-4,5-dihydro-1H-pyrazole-1-carbonyl)-bicyclo[1.1.1]pentan-1-yl)methyl)-3,3-difluoroindolin-2-one] was tested, and the IC50 was 196 nM. In the case of `N#Cc1ccc2c(cnn2CC23CC(C(=O)N4N=CCC4c4cc(F)ccc4F)(C2)C3)c1` (stereo not drawn) [Example 53, 1-((3-(5-(2,5-difluorophenyl)-4,5-dihydro-1H-pyrazole-1-carbonyl)-bicyclo[1.1.1]pentan-1-yl)methyl)-1H-indazole-5-carbonitrile], the IC50 is reported as 24 nM. “(3-((3-cyclopropyl-1H-pyrazol-1-yl)methyl)-bicyclo[1.1.1]pentan-1-yl)(5-(3,5-difluorophenyl)-4,5-dihydro-1H-pyrazol-1-yl)methanone and (3-((5-cyclopropyl-1H-pyrazol-1-yl)methyl)-bicyclo[1.1.1]pentan-1-yl)(5-(3,5-difluorophenyl)-4,5-dihydro-1H-pyrazol-1-yl)methanone [Example 191]” gave an IC50 of 74 nM. Compound `CCOC12CC(C(=O)N3CCCC3c3cccc(C)c3)(C1)C2` (stereo not drawn) [Example 122, (3-ethoxybicyclo[1.1.1]-pentan-1-yl)(2-(m-tolyl)-pyrrolidin-1-yl)methanone] has an IC50 of 998 nM. `NC(=O)c1cc(OCC23CC(C(=O)N4CC(F)CC4c4cccc(F)c4)(C2)C3)ncn1` (stereo not drawn) [Example 98, 6-((3-(4-fluoro-2-(3-fluorophenyl)pyrrolidine-1-carbonyl)bicyclo[1.1.1]-pentan-1-yl)methoxy)-pyrimidine-4-carboxamide] showed an IC50 of 240 nM. `Cc1nnc(CC23CC(C(=O)N4N=CCC4c4cc(F)cc(F)c4)(C2)C3)o1` (stereo not drawn) [Example 20, (5-(3,5-Difluorophenyl)-4,5-dihydro-1H-pyrazol-1-yl)(3-((5-methyl-1,3,4-oxadiazol-2-yl)methyl)bicyclo[1.1.1]pentan-1-yl)methanone] gave an IC50 of 1110 nM. `O=C(N1CC(F)CC1c1cccc(F)c1)C12CC(C(O)c3ccccc3)(C1)C2` (stereo not drawn) [Example 40, (4-Fluoro-2-(3-fluorophenyl)pyrrolidin-1-yl)(3-(hydroxy(phenyl)methyl)-bicyclo[1.1.1]pentan-1-yl)methanone] showed an IC50 of 4450 nM. In the case of `O=C(N1N=CCC1c1cc(F)cc(F)c1)C12CC(Cc3nnn[nH]3)(C1)C2` (stereo not drawn) [Example 19, (3-((1H-tetrazol-5-yl)methyl)bicyclo[1.1.1]pentan-1-yl)(5-(3,5-difluorophenyl)-4,5-dihydro-1H-pyrazol-1-yl)methanone], the IC50 is reported as 363 nM. For “1-((3-(5-(3,5-difluorophenyl)-4,5-dihydro-1H-pyrazole-1-carbonyl)bicyclo[1.1.1]-pentan-1-yl)methyl)-1H-pyrazole-3-carbonitrile and 1-((3-(5-(3,5-difluorophenyl)-4,5-dihydro-1H-pyrazole-1-carbonyl)bicyclo[1.1.1]-pentan-1-yl)methyl)-1H-pyrazole-5-carbonitrile [Example 189]”, the IC50 was 27 nM. Compound `CNC(=O)C12CC(C(=O)N3N=CCC3c3cc(F)cc(F)c3)(C1)C2` (stereo not drawn) [Example 78, 3-(5-(3,5-difluorophenyl)-4,5-dihydro-1H-pyrazole-1-carbonyl)-N-methylbicyclo-[1.1.1]pentane-1-carboxamide] has an IC50 of 13000 nM. In the case of `Cc1cc(C)n(CC23CC(C(=O)N4N=CCC4c4cc(F)cc(F)c4)(C2)C3)n1` (stereo not drawn) [Example 75, (5-(3,5-difluorophenyl)-4,5-dihydro-1H-pyrazol-1-yl)(3-((3,5-dimethyl-1H-pyrazol-1-yl)methyl)bicyclo[1.1.1]-pentan-1-yl)methanone], the IC50 is reported as 323 nM. “(5-(3,5-difluorophenyl)-4,5-dihydro-1H-pyrazol-1-yl)(3-((6-fluoro-2-methyl-1H-benzo[d]imidazol-1-yl)-methyl)bicyclo[1.1.1]pentan-1-yl)methanone and (5-(3,5-difluorophenyl)-4,5-dihydro-1H-pyrazol-1-yl)(3-((5-fluoro-2-methyl-1H-benzo[d]imidazol-1-yl)-methyl)bicyclo[1.1.1]pentan-1-yl)methanone [Example 188]” showed an IC50 of 454 nM. Work on `N#Cc1ccc2c(cnn2CC23CC(C(=O)N4N=CCC4c4cc(F)cc(F)c4)(C2)C3)n1` (stereo not drawn) [Example 179] yielded an IC50 of 9.6 nM. `N#Cc1cc(OCC23CC(C(=O)N4CC(F)CC4c4cccc(F)c4)(C2)C3)ccn1` (stereo not drawn) [Example 99, 4-((3-(4-fluoro-2-(3-fluorophenyl)pyrrolidine-1-carbonyl)bicyclo[1.1.1]-pentan-1-yl)methoxy)-picolinonitrile] showed an IC50 of 280 nM.
